Test [1] can be described thus: Serum lipoprotein (VLDL+LDL) cholesterol alteration by the compound at 50 mg/kg/day dose in normocholesterolemic Male S.E.A. Japanese quail with 5-7 weeks of age. In kind it is functional, Coturnix.
A short description of test [2]: Serum high density lipoprotein (HDL) cholesterol alteration by the compound at 50 mg/kg/day dose in normocholesterolemic Male S.E.A. Japanese quail with 5-7 weeks of age. Format: functional, Coturnix.
Test [3] is described as follows: Total Serum lipoprotein cholesterol alteration by the compound at 50 mg/kg/day dose in normocholesterolemic Male S.E.A. Japanese quail with 5-7 weeks of age.

`COc1c2occc2c(OC)c2c(=O)cc(CN(C)C)oc12`: the T/C in test [1] is 0.37; in test [2] it was 0.92; in test [3] it was 0.82.

`COc1c2occc2cc2c(=O)cc(C)oc12`: the T/C was 0.77 in test [1], 1.19 in test [2] and 1.09 in test [3].

For the molecule `Cc1cc(=O)c2cc3ccoc3cc2o1`, the T/C in test [1] came out at 0.84; in test [2], 1.05; in test [3] it was 1.01.

As to `COc1c2c(c(OC)c3occc13)OC(C)CC2=O` (stereo unspecified), the T/C amounted to 0.55 in test [1], 1.45 in test [2] and 1.24 in test [3].

As to `COc1c2ccoc2cc2oc(C)cc(=O)c12` [VISNAGIN], the T/C in test [1] was determined as 0.51; in test [2], 1.42; in test [3] it was 1.21.

As for `COc1c2occc2c(OC)c2c(=O)cc(C(C)C)oc12`, the T/C turned out to be 0.49 in test [1], 1.4 in test [2] and 1.17 in test [3].

Take `COc1c2occc2c(OC)c2c(=O)cc(C)oc12` [KHELLIN]: the T/C in test [1] was 0.37; in test [2], 1.46; in test [3], 1.21.

On to `COCc1cc(=O)c2c(OC)c3ccoc3c(OC)c2o1`, for which the figures for the T/C in test [1], in test [2] and in test [3] were 0.57, 1.63 and 1.35, respectively.

For `COc1c2occc2c(OC)c2c(=O)cc(CSc3ccccc3)oc12`, the T/C is 0.43 in test [1], 1.33 in test [2] and 1.09 in test [3].

As for `COc1c2occc2c(OC)c2c(=O)cc(CSC)oc12` [TIMEFURONE], the T/C in test [1] stood at 0.47; in test [2], 1.68; in test [3], 1.36.

As for `COc1c2occc2c(OC)c2c(=O)ccoc12`, the T/C is 0.42 in test [1], 1.36 in test [2] and 1.15 in test [3].

`COc1c2c(c(OC)c3c(=O)cc(C)oc13)CCO2`: the T/C in test [1] stood at 0.74; in test [2], 1.17; in test [3], 1.07.

Values taken from ChEMBL document CHEMBL1122404, “Khellin analogues. 1. General topological requirements for lipid-altering activity in furochromones” (1983).
